For orientation: T/C means the result in the treated group divided by that in the control group, in per cent.

Consider five compounds from ChEMBL document CHEMBL3272066, “Synthesis of nitrosourea derivatives of sucrose as central nervous system anticancer agents” (J Med Chem, 1977).

Series [1] relates to L1210. Kind of series: Antitumor activity against mouse L1210 cells allografted in CDF1 mouse at 200 mg/kg, ip administered from day 1 to day 9 relative to control. It is filed as functional. To be noted: route intraperitoneal.
Series [2] can be described thus: Antitumor activity against mouse ependymoblastoma cells allografted in […] mouse at 200 mg/kg, ip administered from day 1 to day 5 relative to control. The note with it: route intraperitoneal. The series is classed as functional.
For series [3], the system named is L1210. As to the kind of experiment: Antitumor activity against mouse L1210 cells allografted in CDF1 mouse at 100 mg/kg, ip administered from day 1 to day 9 relative to control. The series is classed as functional. The note with it: route intraperitoneal.
Series [4] relates to L1210. Kind of series: Antitumor activity against mouse L1210 cells allografted in CDF1 mouse at 50 mg/kg, ip administered from day 1 to day 9 relative to control. The series is classed as functional. The note with it: route intraperitoneal.
A short description of series [5]: Antitumor activity against mouse ependymoblastoma cells allografted in […] mouse at 100 mg/kg, ip administered from day 1 to day 5 relative to control. The series is classed as functional. To be noted: route intraperitoneal.
Series [6] in a line: Antitumor activity against mouse ependymoblastoma cells allografted in […] mouse at 50 mg/kg, ip administered from day 1 to day 5 relative to control. It is filed as functional. To be noted: route intraperitoneal.
Series [7] deals with Mus musculus. As to the kind of experiment: Toxicity in […] mouse allografted with mouse ependymoblastoma cells at 400 mg/kg, ip administered from day 1 to day 5 relative to control. The note with it: in vivo. The series is classed as organism-based. Also on record: dose 400 mg/kg, route intraperitoneal.
For series [8], the system named is L1210. Kind of series: Antitumor activity against mouse L1210 cells allografted in CDF1 mouse at 66 mg/kg, ip administered from day 1 to day 9 relative to control. It is filed as functional. To be noted: route intraperitoneal.
The subject of series [9] is L1210. As to the kind of experiment: Antitumor activity against mouse L1210 cells allografted in CDF1 mouse at 44 mg/kg, ip administered from day 1 to day 9 relative to control. The note with it: route intraperitoneal. It is filed as functional.
Series [10] in a line: Antitumor activity against mouse ependymoblastoma cells allografted in C57BL/6 mouse at 130 mg/kg, ip administered from day 1 to day 5 relative to control. It is filed as functional. To be noted: route intraperitoneal.
Series [11] concerns L1210. Kind of series: Antitumor activity against mouse L1210 cells allografted in CDF1 mouse at 29 mg/kg, ip administered from day 1 to day 9 relative to control. To be noted: route intraperitoneal. It is filed as functional.
Series [12] is described as follows: Antitumor activity against mouse ependymoblastoma cells allografted in C57BL/6 mouse at 100 mg/kg, ip administered from day 1 to day 5 relative to control. The note with it: route intraperitoneal. It is filed as functional.

Take `CN(N=O)C(=O)NC[C@H]1O[C@@](CNC(=O)N(C)N=O)(O[C@H]2O[C@H](CNC(=O)N(C)N=O)[C@@H](O)[C@H](O)[C@H]2O)[C@@H](O)[C@@H]1O`: the T/C worked out at 137% in [1]; 133% in [2]; 117% in series [3]; 110% in series [4]; 120% in series [5]; 97% in series [6]. For the same compound, in series [7], the Activity entry is on record as “Non-toxic”.

For `CN(N=O)C(=O)NC[C@H]1O[C@@](CO)(O[C@H]2O[C@H](CNC(=O)N(C)N=O)[C@@H](O)[C@H](O)[C@H]2O)[C@@H](O)[C@@H]1O`, the T/C amounted to 137% in series [1]; 148% in series [2]; 129% in series [3]; 107% in [4]; 97% in series [5]; 111% in series [6]. The Activity entry in series [7] is “Toxic”.

For the compound `CC(=O)OC[C@@]1(O[C@H]2O[C@H](CNC(=O)N(C)N=O)[C@@H](OC(C)=O)[C@H](OC(C)=O)[C@H]2OC(C)=O)O[C@H](CNC(=O)N(C)N=O)[C@@H](OC(C)=O)[C@@H]1OC(C)=O`, the T/C turned out to be 119% in [1], 105% in [3] and 109% in [4].

Turning to `CC(=O)O[C@@H]1[C@@H](OC(C)=O)[C@@H](O[C@]2(CNC(=O)N(C)N=O)O[C@H](CNC(=O)N(C)N=O)[C@@H](OC(C)=O)[C@@H]2OC(C)=O)O[C@H](CNC(=O)N(C)N=O)[C@H]1OC(C)=O`, the T/C worked out at 120% in series [1], 102% in [3] and 104% in [4].

In the case of `CN(N=O)C(=O)N[C@@H](C=O)[C@@H](O)[C@H](O)[C@H](O)CO` [STREPTOZOCIN], the T/C in series [8] is listed as 109%; in series [9] it was 137%; in [3], 107%; in series [10] it was 127%; in [11], 117%; in [12], 144%.
